Laboratory results reported in patent publication US12354130B2, “Combination therapies” (Genentech, Inc., priority 2012, dated 2025).
Where two headings read alike, the source gives them in different places.

Columns and labels:
[1] = system: patients with BRAF^V600 mutation-positive, unresectable locally advanced or metastatic melanoma
Source text: This multicenter study has 2 stages: a dose-escalation stage and a cohort-expansion stage.
Key inclusion criteria include the presence of the V600E mutation in melanoma tumor tissue using the Cobas® 4800 BRAF V600 mutation test, measurable disease per Response Evaluation Criteria in Solid Tumors (RECIST) v1.1, ECOG PS of ≤1, and adequate hematologic and end organ function as assessed through key laboratory measures. Patients were excluded if they had: ocular pathology or risk factors that predisposes to retinal vein occlusion; QTc>450 ms; or active CNS metastasis. Patients treated with stereotactic radiation therapy or surgery were eligible if stable for >3 weeks prior to treatment.
Each treatment cycle was 28 days.
Dose-escalation used the standard 3+3 design and proceeded in increments, taking into account the safety and tolerability of the combination.
Eligible patients had BRAF^V600-mutated unresectable or metastatic melanoma, and ECOG PS 0-1. Patients were either naïve to vemurafenib or had disease progression on vemurafenib. The study consisted of dose-escalation and expansion stages. […] Primary endpoints were maximum tolerated dose (MTD), dose-limiting toxicity (DLT) of both drugs, safety, and PK.

[2] = system: unresectable or metastatic melanoma that is BRAFV600E mutation-positive; details: cited from earlier work
[3] = cited from earlier work
[4] = cited from earlier work; remark: listed apart in the source
[5] = during combination treatment, as of 6 Jul. 2012
[6] = compared with dacarbazine (Chapman et al. 2011)

Compound	dose-limiting toxicity event ([1]; cohort 1 (vemurafenib 720 mg BID+GDC-0973 60 mg QD 14/14), led to discontinuation of vemurafenib)	dose-limiting toxicity event ([1]; cohort 1D)	discontinuation of the drug because of QT interval prolongation [1, 5] [patient]	primary dose reduction of the drug because of LFT abnormality [1, 5] [patient]	primary dose reduction of the drug because of central serous retinopathy [1, 5] [patient]	primary dose reduction of the drug because of rash [1, 5] [patient]	temporary interruption of the drug because of arthralgia [1, 5] [patients]	temporary interruption of the drug because of liver function test (LFT) abnormalities [1, 5] [patients]	temporary interruption of the drug because of rash [1, 5] [patients]	response rates ([2]; Flaherty 2010, Chapman 2011, Sosman 2012)	decrease in the risk of disease progression or death [2, 6] [%]	reduction in the risk of death [2, 6] [%]	dissolution rate of the amorphous form as compared to the crystalline form [3]	solubility in water of the amorphous form as compared with the crystalline form [3]	single-agent MTD ([4]; in vivo) [mg BID]	single-agent MTD ([4]; 21/7 schedule) [mg]
CCCS(=O)(=O)Nc1ccc(F)c(C(=O)c2c[nH]c3ncc(-c4ccc(Cl)cc4)cc23)c1F [vemurafenib, propane-1-sulfonic acid {3-[5-(4-chlorophenyl)-1H-pyrrolo[2,3-b]pyridine-3-carbonyl]-2,4-difluoro-phenyl}-amide]	Grade 3 QT prolongation	Grade 3 arthralgia	1	1	1	1	3	3	8	greater than 50%	74	63	improved dissolution rate	greater solubility in water	960	
O=C(c1ccc(F)c(F)c1Nc1ccc(I)cc1F)N1CC(O)([C@@H]2CCCCN2)C1 [GDC-0973, [3,4-difluoro-2-[(2-fluoro-4-iodophenyl)amino]phenyl][3-hydroxy-3-[(2S)-2-piperidinyl]-1-azetidinyl]methanone]																60
